In US20050075375A1 (priority 2003, published 2005):

System: monocistronic NK5.1 HCV replicon in Huh7 cells
Experiment: HCV replicon assay, monocistronic replicon cell line
Format: cell-based, hepatitis C virus
Conditions: Hepatitis C virus, Huh-7, 72 h; table T3 (compounds 471-640); monocistronic replicon in Huh7 cells, 3 days incubation, HCV RNA/GAPDH RNA by TaqMan RT-PCR; read-out: Mono EC50 Median
Summary of the method: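 EC50 derives from the HCV RNA/GAPDH RNA ratio by one-step TaqMan RT-PCR, relative to DMSO-only wells. Compounds (six half-log concentrations, 0.6% DMSO) were incubated 3 days at 37 °C with NK5.1 monocistronic replicon Huh7 cells plated a day earlier.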

Compound	EC50
Fc1cc(-c2nc(-c3ncccc3C(F)(F)F)n[nH]2)ccc1-c1ccccc1 [Compound 538, 2-[5-(2-Fluoro-biphenyl-4-yl)-1H-[1,2,4]triazol-3-yl]-3-trifluoromethyl-pyridine]	> 19 µM
Oc1ccc(Br)cc1-c1nc(-c2ncccc2C(F)(F)F)n[nH]1 [Compound 539, 4-Bromo-2-[5-(3-trifluoromethyl-pyridin-2-yl)-2H-[1,2,4]triazol-3-yl]-phenol]	0.35 µM
Cc1ccc(O)c(-c2nc(-c3ncccc3C(F)(F)F)n[nH]2)c1 [Compound 540, 4-Methyl-2-[5-(3-trifluoromethyl-pyridin-2-yl)-2H-[1,2,4]triazol-3-yl]-phenol]	> 19 µM
COc1ccc(-c2nc(-c3ncccc3C(F)(F)F)n[nH]2)c(O)c1 [Compound 541, 5-Methoxy-2-[5-(3-trifluoromethyl-pyridin-2-yl)-2H-[1,2,4]triazol-3-yl]-phenol]	> 19 µM
Oc1ccccc1-c1nc(-c2ncccc2C(F)(F)F)n[nH]1 [Compound 542, 2-[5-(3-trifluoromethyl-pyridin-2-yl)-2H-[1,2,4]triazol-3-yl]-phenol]	> 19 µM
COc1cccc(-c2nc(-c3ncccc3C(F)(F)F)n[nH]2)c1O [Compound 543, 6-Methoxy-2-[5-(3-trifluoromethyl-pyridin-2-yl)-2H-[1,2,4]triazol-3-yl]-phenol]	> 19 µM
O=[N+]([O-])c1cccc(-c2nc(-c3ncccc3C(F)(F)F)n[nH]2)c1 [Compound 544, 2-[5-(3-Nitro-phenyl)-1H-[1,2,4]triazol-3-yl]-3-trifluoromethyl-pyridine]	> 19 µM
CCN(CC)c1ccc(-c2nc(-c3ncccc3C(F)(F)F)n[nH]2)c(O)c1 [Compound 545, 5-Diethylamino-2-[5-(3-trifluoromethyl-pyridin-2-yl)-2H-[1,2,4]triazol-3-yl]-phenol]	> 19 µM
Oc1ccc(O)c(-c2nc(-c3ncccc3C(F)(F)F)n[nH]2)c1 [Compound 546, 4-Hydroxy-2-[5-(3-trifluoromethyl-pyridin-2-yl)-2H-[1,2,4]triazol-3-yl]-phenol]	> 19 µM
COc1cccc(-c2nc(-c3ncccc3C(F)(F)F)n[nH]2)c1 [Compound 547, 2-[5-(3-Methoxy-phenyl)-1H-[1,2,4]triazol-3-yl]-3-trifluoromethyl-pyridine]	> 19 µM
CC(C)c1ccc(-c2nc(-c3ncccc3C(F)(F)F)n[nH]2)cc1 [Compound 548, 2-[5-(4-Isopropyl-phenyl)-1H-[1,2,4]triazol-3-yl]-3-trifluoromethyl-pyridine]	> 19 µM
Oc1ccc2ccccc2c1-c1nc(-c2ncccc2C(F)(F)F)n[nH]1 [Compound 549, 1-[5-(3-trifluoromethyl-pyridin-2-yl)-2H-[1,2,4]triazol-3-yl]-naphthalen-2-ol]	> 19 µM
FC(F)(F)c1cccnc1-c1n[nH]c(-c2cccc(Br)c2)n1 [Compound 550, 2-[5-(3-Bromo-phenyl)-1H-[1,2,4]triazol-3-yl]-3-trifluoromethyl-pyridine]	> 19 µM
FC(F)(F)c1cccnc1-c1n[nH]c(-c2c(Cl)cccc2Cl)n1 [Compound 551, 2-[5-(2,6-Dichloro-phenyl)-1H-[1,2,4]triazol-3-yl]-3-trifluoromethyl-pyridine]	> 19 µM
Fc1cc(Br)ccc1-c1nc(-c2ncccc2C(F)(F)F)n[nH]1 [Compound 552, 2-[5-(4-Bromo-2-fluoro-phenyl)-1H-[1,2,4]triazol-3-yl]-3-trifluoromethyl-pyridine]	> 19 µM
COc1ccc(Br)cc1-c1nc(-c2ncccc2C(F)(F)F)n[nH]1 [Compound 553, 2-[5-(5-Bromo-2-methoxy-phenyl)-1H-[1,2,4]triazol-3-yl]-3-trifluoromethyl-pyridine]	> 19 µM
COc1ccc(O)c(-c2nc(-c3ncccc3[N+](=O)[O-])n[nH]2)c1 [Compound 554, 4-Methoxy-2-[5-(3-nitro-pyridin-2-yl)-2H-[1,2,4]triazol-3-yl]-phenol]	> 19 µM
Nc1cccnc1-c1n[nH]c(-c2cc(Br)ccc2O)n1 [Compound 555, 2-[5-(3-amino-pyridin-2-yl)-2H-[1,2,4]triazol-3-yl]-4-bromo-phenol]	> 3.2 µM
O=[N+]([O-])c1cccnc1-c1n[nH]c(-c2cc(Br)ccc2O)n1 [Compound 556, 4-Bromo-2-[5-(3-nitro-pyridin-2-yl)-2H-[1,2,4]triazol-3-yl]-phenol]	> 3.2 µM
Nc1cccnc1-c1n[nH]c(-c2c(O)ccc3ccccc23)n1 [Compound 557, 1-[5-(3-amino-pyridin-2-yl)-2H-[1,2,4]triazol-3-yl]-naphthalen-2-ol]	> 3.2 µM
O=[N+]([O-])c1cccnc1-c1n[nH]c(-c2c(O)ccc3ccccc23)n1 [Compound 558, 1-[5-(3-Nitro-pyridin-2-yl)-2H-[1,2,4]triazol-3-yl]-naphthalen-2-ol]	> 3.2 µM
CC(C)(C)c1ccc(O)c(-c2nc(-c3ncccn3)n[nH]2)c1 [Compound 559, 4-tert-Butyl-2-(5-pyrimidin-2-yl-2H-[1,2,4]triazol-3-yl)-phenol]	> 32 µM
O=[N+]([O-])c1ccc(O)c(-c2nc(-c3ncccn3)n[nH]2)c1 [Compound 560, 4-Nitro-2-(5-pyrimidin-2-yl-2H-[1,2,4]triazol-3-yl)-phenol]	> 32 µM
Oc1ccc(F)cc1-c1nc(-c2ncccn2)n[nH]1 [Compound 561, 4-Fluoro-2-(5-pyrimidin-2-yl-2H-[1,2,4]triazol-3-yl)-phenol]	> 32 µM

Compound	EC50
COc1ccc(O)c(-c2nc(-c3ncccn3)n[nH]2)c1 [Compound 562, 4-Methoxy-2-(5-pyrimidin-2-yl-2H-[1,2,4]triazol-3-yl)-phenol]	> 32 µM
Oc1ccc(Cl)cc1-c1nc(-c2ncccn2)n[nH]1 [Compound 563, 4-Chloro-2-(5-pyrimidin-2-yl-2H-[1,2,4]triazol-3-yl)-phenol]	6.4 µM
CCOc1cccc(-c2nc(-c3ncccn3)n[nH]2)c1O [Compound 564, 6-Ethoxy-2-(5-pyrimidin-2-yl-2H-[1,2,4]triazol-3-yl)-phenol]	> 32 µM
Oc1cc(OCc2ccccc2)ccc1-c1nc(-c2ncccn2)n[nH]1 [Compound 565, 5-Benzyloxy-2-(5-pyrimidin-2-yl-2H-[1,2,4]triazol-3-yl)-phenol]	26 µM
Oc1ccc(Br)cc1-c1nc(-c2ncccn2)n[nH]1 [Compound 566, 4-Bromo-2-(5-pyrimidin-2-yl-2H-[1,2,4]triazol-3-yl)-phenol]	5.9 µM
Cc1ccc(O)c(-c2nc(-c3ncccn3)n[nH]2)c1 [Compound 567, 4-Methyl-2-(5-pyrimidin-2-yl-2H-[1,2,4]triazol-3-yl)-phenol]	> 32 µM
COc1ccc(-c2nc(-c3ncccn3)n[nH]2)c(O)c1 [Compound 568, 5-Methoxy-2-(5-pyrimidin-2-yl-2H-[1,2,4]triazol-3-yl)-phenol]	> 32 µM
Oc1ccccc1-c1nc(-c2ncccn2)n[nH]1 [Compound 569, 2-(5-pyrimidin-2-yl-2H-[1,2,4]triazol-3-yl)-phenol]	> 32 µM
COc1cccc(-c2nc(-c3ncccn3)n[nH]2)c1O [Compound 570, 6-Methoxy-2-(5-pyrimidin-2-yl-2H-[1,2,4]triazol-3-yl)-phenol]	> 32 µM
CCN(CC)c1ccc(-c2nc(-c3ncccn3)n[nH]2)c(O)c1 [Compound 571, 5-Diethylamino-2-(5-pyrimidin-2-yl-2H-[1,2,4]triazol-3-yl)-phenol]	18 µM
Oc1ccc(O)c(-c2nc(-c3ncccn3)n[nH]2)c1 [Compound 572, 4-Hydroxy-2-(5-pyrimidin-2-yl-2H-[1,2,4]triazol-3-yl)-phenol]	> 32 µM
Oc1ccc2ccccc2c1-c1nc(-c2ncccn2)n[nH]1 [Compound 573, 1-(5-pyrimidin-2-yl-2H-[1,2,4]triazol-3-yl)-naphthalen-2-ol]	3.5 µM
Oc1c(-c2nc(-c3ncccn3)n[nH]2)ccc2ccccc12 [Compound 574, 2-(5-Pyrimidin-2-yl-2H-[1,2,4]triazol-3-yl)-naphthalen-1-ol]	> 32 µM
CC(C)(C)c1ccc(O)c(-c2nc(-c3cnccn3)n[nH]2)c1 [Compound 575, 4-tert-Butyl-2-(5-pyrazin-2-yl-2H-[1,2,4]triazol-3-yl)-phenol]	9 µM
O=[N+]([O-])c1ccc(O)c(-c2nc(-c3cnccn3)n[nH]2)c1 [Compound 576, 4-Nitro-2-(5-pyrazin-2-yl-2H-[1,2,4]triazol-3-yl)-phenol]	16 µM
Oc1ccc(F)cc1-c1nc(-c2cnccn2)n[nH]1 [Compound 577, 4-Fluoro-2-(5-pyrazin-2-yl-2H-[1,2,4]triazol-3-yl)-phenol]	18 µM
COc1ccc(O)c(-c2nc(-c3cnccn3)n[nH]2)c1 [Compound 578, 4-Methoxy-2-(5-pyrazin-2-yl-2H-[1,2,4]triazol-3-yl)-phenol]	> 32 µM
Oc1ccc(Cl)cc1-c1nc(-c2cnccn2)n[nH]1 [Compound 579, 4-Chloro-2-(5-pyrazin-2-yl-2H-[1,2,4]triazol-3-yl)-phenol]	5.8 µM
CCOc1cccc(-c2nc(-c3cnccn3)n[nH]2)c1O [Compound 580, 6-Ethoxy-2-(5-pyrazin-2-yl-2H-[1,2,4]triazol-3-yl)-phenol]	> 32 µM
Oc1cc(OCc2ccccc2)ccc1-c1nc(-c2cnccn2)n[nH]1 [Compound 581, 5-Benzyloxy-2-(5-pyrazin-2-yl-2H-[1,2,4]triazol-3-yl)-phenol]	> 32 µM
Oc1ccc(Br)cc1-c1nc(-c2cnccn2)n[nH]1 [Compound 582, 4-Bromo-2-(5-pyrazin-2-yl-2H-[1,2,4]triazol-3-yl)-phenol]	18 µM
Cc1ccc(O)c(-c2nc(-c3cnccn3)n[nH]2)c1 [Compound 583, 4-Methyl-2-(5-pyrazin-2-yl-2H-[1,2,4]triazol-3-yl)-phenol]	> 32 µM
COc1ccc(-c2nc(-c3cnccn3)n[nH]2)c(O)c1 [Compound 584, 5-Methoxy-2-(5-pyrazin-2-yl-2H-[1,2,4]triazol-3-yl)-phenol]	> 32 µM
